ChEMBL document CHEMBL4229492, “Design, Synthesis, and Biological Evaluation of Novel 7-[(3 aS,7 aS)-3 a-Aminohexahydropyrano[3,4- c]pyrrol-2(3 H)-yl]-8-methoxyquinolines with Potent Antibacterial Activity against Respiratory Pathogens” (J Med Chem, 2018)
Values after ≈ are worked out from the molar mass of the structure shown. Active and inactive are the calls of the source. No cut-off for these calls is given here.

Assays:
[1] = AUC (0 to 24 hrs) in cynomolgus monkey serum at 5 mg/kg, po; assay type: ADME, organism-based, Macaca fascicularis; parameters: time < 24 hr, dose 5 mg/kg, route oral
[2] = AUC (0 to 8 hrs) in cynomolgus monkey serum at 5 mg/kg, iv; assay type: ADME, organism-based, Macaca fascicularis; parameters: dose 5 mg/kg, time < 8 hr, route intravenous
Staphylococcus aureus [3] = assay: Antibacterial activity against Staphylococcus aureus SMITH after 18 hrs by two-fold microbroth dilution method; assay type: functional
Streptococcus pneumoniae [4] = assay: Antibacterial activity against penicillin-susceptible Streptococcus pneumoniae J41 after 18 hrs by two-fold microbroth dilution method; assay type: functional; conditions: J41, 18 h
Streptococcus pyogenes = assay: Antibacterial activity against Streptococcus pyogenes ATCC 12344 after 18 hrs by two-fold microbroth dilution method; assay type: functional; conditions: ATCC 12344, 18 h
Bacillus spizizenii = assay: Antibacterial activity against Bacillus subtilis ATCC 6633 after 18 hrs by two-fold microbroth dilution method; assay type: functional; conditions: ATCC 6633, 18 h
Staphylococcus aureus [5] = assay: Antibacterial activity against levofloxacin and methicillin-resistant Staphylococcus aureus 870307 after 18 hrs by two-fold microbroth dilution method; assay type: functional; conditions: Staphylococcus aureus, 870307, 18 h
Staphylococcus aureus [6] = assay: Antibacterial activity against levofloxacin and methicillin-resistant Staphylococcus aureus 890325-1 after 18 hrs by two-fold microbroth dilution method; assay type: functional; conditions: 890325-1, 18 h
Streptococcus pneumoniae [7] = assay: Antibacterial activity against penicillin-resistant Streptococcus pneumoniae 033806 after 18 hrs by two-fold microbroth dilution method; assay type: functional; conditions: Streptococcus pneumoniae, 033806, 18 h
Escherichia coli [8] = assay: Antibacterial activity against quinolone-resistant Escherichia coli DNS5101 after 18 hrs by two-fold microbroth dilution method; assay type: functional; conditions: DNS5101, 18 h
Escherichia coli [9] = assay: Antibacterial activity against Escherichia coli 5-037042'98 harboring gyrase A Asp87Gly mutation after 18 hrs by two-fold microbroth dilution method; assay type: functional; conditions: 5-037042'98, 18 h
Staphylococcus aureus [10] = assay: Antibacterial activity against methicillin-resistant Staphylococcus aureus after 18 hrs by two-fold microbroth dilution method; assay type: functional; conditions: Staphylococcus aureus, 18 h
[11] = Metabolic stability in human microsomes at 1 uM assessed as compound remaining after 30 mins; assay type: ADME, Microsome; conditions: read-out: Stability
Albumin = Albumin (Homo sapiens, UniProt P02768); assay: Binding affinity to human serum albumin after 60 mins at 37 degC by ultrafiltration-based LC-MS analysis; assay type: ADME; conditions: read-out: PB (converted)
Sequence of Albumin (P02768 whole entry): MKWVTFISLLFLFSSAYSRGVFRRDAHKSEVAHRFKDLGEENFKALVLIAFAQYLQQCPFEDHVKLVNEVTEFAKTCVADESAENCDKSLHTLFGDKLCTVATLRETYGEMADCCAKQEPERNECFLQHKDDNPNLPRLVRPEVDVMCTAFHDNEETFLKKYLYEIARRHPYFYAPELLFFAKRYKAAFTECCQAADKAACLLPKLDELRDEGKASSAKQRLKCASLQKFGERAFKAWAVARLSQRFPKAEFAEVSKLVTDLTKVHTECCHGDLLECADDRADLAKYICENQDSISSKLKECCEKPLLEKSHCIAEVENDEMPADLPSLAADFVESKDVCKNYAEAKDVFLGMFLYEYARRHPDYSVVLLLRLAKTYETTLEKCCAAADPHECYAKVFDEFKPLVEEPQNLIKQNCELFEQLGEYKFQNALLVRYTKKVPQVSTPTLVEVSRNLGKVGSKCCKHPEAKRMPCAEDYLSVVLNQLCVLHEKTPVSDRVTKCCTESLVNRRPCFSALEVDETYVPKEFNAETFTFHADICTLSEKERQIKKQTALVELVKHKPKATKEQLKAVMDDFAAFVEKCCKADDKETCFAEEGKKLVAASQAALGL

CYP3A4 = CYP3A4 (Homo sapiens, UniProt P08684); assay: Inhibition of CYP3A4 in human liver microsomes at 10 uM assessed as remaining activity by measuring 1'-hydroxylation of midazolam after 30 mins; assay type: ADME; conditions: probe midazolam (1'-hydroxylation), read-out: Activity
Sequence of CYP3A4 (P08684 whole entry): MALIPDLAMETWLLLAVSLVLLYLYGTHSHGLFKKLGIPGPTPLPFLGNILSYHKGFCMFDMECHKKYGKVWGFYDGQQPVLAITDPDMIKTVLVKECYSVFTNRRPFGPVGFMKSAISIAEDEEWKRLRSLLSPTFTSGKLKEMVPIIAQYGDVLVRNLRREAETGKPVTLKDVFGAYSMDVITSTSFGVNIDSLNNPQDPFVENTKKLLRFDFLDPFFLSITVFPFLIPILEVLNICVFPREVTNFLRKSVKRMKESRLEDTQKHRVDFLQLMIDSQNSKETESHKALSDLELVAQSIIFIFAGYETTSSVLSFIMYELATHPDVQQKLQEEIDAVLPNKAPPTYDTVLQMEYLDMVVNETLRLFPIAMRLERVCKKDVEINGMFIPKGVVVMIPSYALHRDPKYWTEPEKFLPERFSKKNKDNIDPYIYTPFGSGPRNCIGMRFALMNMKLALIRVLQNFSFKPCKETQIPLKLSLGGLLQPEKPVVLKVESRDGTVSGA

Streptococcus pneumoniae [12] = assay: (§1) In vivo antibacterial activity against quinolone-sensitive and penicillin-resistant Streptococcus pneumoniae 033806 infected in CBA/JNCrj mouse assessed as reduction in bacterial count at 10 to 40 mg/kg, sc administered twice per day starting from 1 day after infection and measured on day after final dose; assay type: functional, organism-based
Mus musculus [13] = assay: Toxicity in Slc:ddY mouse assessed as induction of convulsion at 5 ug/5 uL/mouse administered intracisternally and measured over 30 mins post dose; assay type: organism-based; conditions: in vivo, other, 0.5 h
Mus musculus [14] = assay: Toxicity in Slc:ddY mouse assessed as induction of convulsion at 50 ug/5 uL/mouse administered intracisternally and measured over 30 mins post dose; assay type: organism-based; conditions: in vivo, other, 0.5 h
Mus musculus [15] = assay: Toxicity in Slc:ddY mouse assessed as induction of convulsion at 5 ug/5 uL/mouse administered intracisternally 30 mins after 400 mg/kg, po BPAA dosing and measured over 30 mins post dose; assay type: organism-based; conditions: in vivo, 0.5 h
Mus musculus [16] = assay: Toxicity in Slc:ddY mouse assessed as induction of mortality at 5 ug/5 uL/mouse administered intracisternally and measured over 30 mins post dose; assay type: organism-based; conditions: in vivo, other, 0.5 h
Mus musculus [17] = assay: Toxicity in Slc:ddY mouse assessed as induction of mortality at 15 ug/5 uL/mouse administered intracisternally and measured over 30 mins post dose; assay type: organism-based; conditions: in vivo, other, 0.5 h
Mus musculus [18] = assay: Toxicity in Slc:ddY mouse assessed as induction of mortality at 50 ug/5 uL/mouse administered intracisternally and measured over 30 mins post dose; assay type: organism-based; conditions: in vivo, other, 0.5 h
Mus musculus [19] = assay: Toxicity in Slc:ddY mouse assessed as induction of mortality at 5 ug/5 uL/mouse administered intracisternally 30 mins after 400 mg/kg, po BPAA dosing and measured over 30 mins post dose; assay type: organism-based; conditions: in vivo, 0.5 h
Mus musculus [20] = assay: Toxicity in Slc:ddY mouse assessed as induction of mortality at 15 ug/5 uL/mouse administered intracisternally 30 mins after 400 mg/kg, po BPAA dosing and measured over 30 mins post dose; assay type: organism-based; conditions: in vivo, 0.5 h
Mus musculus [21] = assay: Toxicity in Slc:ddY mouse assessed as induction of mortality at 50 ug/5 uL/mouse administered intracisternally 30 mins after 400 mg/kg, po BPAA dosing and measured over 30 mins post dose; assay type: organism-based; conditions: in vivo, 0.5 h
Streptococcus pneumoniae [22] = assay: as §1, with “40” for “10”, “80” for “40”; assay type: functional, organism-based
Streptococcus pneumoniae [23] = assay: Antibacterial activity against penicillin-susceptible Streptococcus pneumoniae J24 after 18 hrs by two-fold microbroth dilution method; assay type: functional; conditions: J24, 18 h
Enterococcus faecalis = assay: Antibacterial activity against Enterococcus faecalis ATCC 19433 after 18 hrs by two-fold microbroth dilution method; assay type: functional; conditions: ATCC 19433, 18 h
Escherichia coli [24] = assay: Antibacterial activity against Escherichia coli NIHJ after 18 hrs by two-fold microbroth dilution method; assay type: functional
Klebsiella pneumoniae = assay: Antibacterial activity against Klebsiella pneumoniae TYPE 1 after 18 hrs by two-fold microbroth dilution method; assay type: functional; conditions: TYPE 1, 18 h
Haemophilus influenzae = assay: Antibacterial activity against Haemophilus influenzae ATCC 49247 after 18 hrs by two-fold microbroth dilution method; assay type: functional; conditions: ATCC 49247, 18 h
Moraxella catarrhalis = assay: Antibacterial activity against Moraxella catarrhalis ATCC 25238 after 18 hrs by two-fold microbroth dilution method; assay type: functional; conditions: ATCC 25238, 18 h
Pseudomonas aeruginosa = assay: Antibacterial activity against Pseudomonas aeruginosa PAO1 after 18 hrs by two-fold microbroth dilution method; assay type: functional; conditions: PAO1, 18 h
hERG (KCNH2) [25] = molecular target: T1, hERG (KCNH2) (Homo sapiens, UniProt Q12809); assay: Inhibition of human ERG expressed in HEK293 cells at 30 uM; assay type: cell-based; conditions: HEK293 cells that express human ERG
T1 sequence (Q12809 whole entry): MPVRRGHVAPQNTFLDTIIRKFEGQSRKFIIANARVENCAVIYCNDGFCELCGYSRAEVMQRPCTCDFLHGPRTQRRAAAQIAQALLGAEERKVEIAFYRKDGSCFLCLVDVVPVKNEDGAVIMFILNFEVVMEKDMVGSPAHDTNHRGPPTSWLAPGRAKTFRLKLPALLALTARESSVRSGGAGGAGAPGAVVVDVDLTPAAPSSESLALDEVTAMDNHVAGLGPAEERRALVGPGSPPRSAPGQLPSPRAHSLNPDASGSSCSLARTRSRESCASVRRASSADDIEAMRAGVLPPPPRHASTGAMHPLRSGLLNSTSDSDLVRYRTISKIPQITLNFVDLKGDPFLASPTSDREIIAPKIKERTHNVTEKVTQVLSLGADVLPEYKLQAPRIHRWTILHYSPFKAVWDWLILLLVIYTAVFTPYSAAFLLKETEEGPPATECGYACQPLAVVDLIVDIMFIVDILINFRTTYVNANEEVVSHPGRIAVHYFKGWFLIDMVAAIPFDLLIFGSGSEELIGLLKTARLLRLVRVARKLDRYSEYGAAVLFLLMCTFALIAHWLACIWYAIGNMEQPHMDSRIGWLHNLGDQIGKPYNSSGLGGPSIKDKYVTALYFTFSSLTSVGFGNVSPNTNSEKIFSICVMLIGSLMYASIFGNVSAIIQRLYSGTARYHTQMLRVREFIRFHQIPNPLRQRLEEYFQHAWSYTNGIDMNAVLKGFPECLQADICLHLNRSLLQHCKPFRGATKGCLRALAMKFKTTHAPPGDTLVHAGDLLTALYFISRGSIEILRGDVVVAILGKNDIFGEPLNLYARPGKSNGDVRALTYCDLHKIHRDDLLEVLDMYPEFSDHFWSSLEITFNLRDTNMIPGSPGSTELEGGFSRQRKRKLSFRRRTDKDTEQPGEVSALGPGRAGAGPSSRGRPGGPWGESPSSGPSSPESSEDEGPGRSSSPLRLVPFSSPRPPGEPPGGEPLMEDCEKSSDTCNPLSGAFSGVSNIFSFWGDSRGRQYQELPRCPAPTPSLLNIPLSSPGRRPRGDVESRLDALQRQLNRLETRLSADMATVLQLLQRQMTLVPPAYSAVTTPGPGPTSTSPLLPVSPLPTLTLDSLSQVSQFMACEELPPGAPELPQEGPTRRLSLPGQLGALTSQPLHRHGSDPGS

hERG (KCNH2) [26] = molecular target: T1, hERG (KCNH2); assay: Inhibition of human ERG expressed in HEK293 cells at 100 uM; assay type: cell-based; conditions: HEK293 cells that express human ERG
[27] = Cmax in cynomolgus monkey serum at 5 mg/kg, po; assay type: ADME, organism-based, Macaca fascicularis; parameters: dose 5 mg/kg, route oral
[28] = Half life in cynomolgus monkey serum at 5 mg/kg, po; assay type: ADME, organism-based, Macaca fascicularis
[29] = Drug recovery in cynomolgus monkey urine at 5 mg/kg, po after 24 hrs; assay type: ADME, organism-based, Macaca fascicularis; conditions: read-out: Drug recovery
[30] = Oral bioavailability in cynomolgus monkey at 5 mg/kg; assay type: ADME, organism-based, Macaca fascicularis; conditions: in vivo
Mus musculus [31] = assay: Toxicity in Slc:ddY mouse assessed as induction of convulsion at 15 ug/5 uL/mouse administered intracisternally 30 mins after 400 mg/kg, po BPAA dosing and measured over 30 mins post dose; assay type: organism-based; conditions: in vivo, 0.5 h
Mus musculus [32] = assay: Toxicity in Slc:ddY mouse assessed as induction of convulsion at 50 ug/5 uL/mouse administered intracisternally 30 mins after 400 mg/kg, po BPAA dosing and measured over 30 mins post dose; assay type: organism-based; conditions: in vivo, 0.5 h

SMILES: COc1c(N2C[C@@H]3CCCN[C@@H]3C2)c(F)cc2c(=O)c(C(=O)O)cn(C3CC3)c12.Cl.O [MOXIFLOXACIN HYDROCHLORIDE HYDRATE]
- AUC(0-t) at 24 h [1]: 6630 ng·h/mL
- AUC(0-t) at 8 h [2]: 10900 ng·h/mL

SMILES: COc1c(N2CC3(CC3)[C@](C)(N)C2)c(F)cc2c(=O)c(C(=O)O)cn([C@@H]3C[C@@H]3F)c12
- MIC (Staphylococcus aureus [3]): 0.012 µg/mL (≈ 0.0286 µM)
- MIC (Streptococcus pneumoniae [4]): 0.1 µg/mL (≈ 0.238 µM)
- MIC (Streptococcus pyogenes): 0.2 µg/mL (≈ 0.477 µM)
- MIC (Bacillus spizizenii): 0.012 µg/mL (≈ 0.0286 µM)
- MIC (Staphylococcus aureus [5]): 0.78 µg/mL (≈ 1.86 µM)
- MIC (Staphylococcus aureus [6]): 0.78 µg/mL (≈ 1.86 µM)
- MIC (Streptococcus pneumoniae [7]): 0.12 µg/mL (≈ 0.286 µM)
- MIC (Escherichia coli [8]): 6.25 µg/mL (≈ 14.9 µM)
- MIC (Escherichia coli [9]): 0.05 µg/mL (≈ 0.119 µM)
- MIC50 (Staphylococcus aureus [10]): 0.03 µg/mL (≈ 0.0715 µM)
- MIC90 (Staphylococcus aureus [10]): 1 µg/mL (≈ 2.38 µM)
- MIC (Staphylococcus aureus [10]; read-out: MIC): 0.015 to 4 µg/mL (≈ 0.0358 to 9.54 µM)
- remaining at 0.5 h, 1 µM [11]: 97%
- fraction unbound at 1 h (Albumin): 0.946
- activity at 0.5 h, 10 µM (CYP3A4): 78.4%
- AUC(0-t) at 24 h [1]: 16900 ng·h/mL
- AUC(0-t) at 8 h [2]: 23800 ng·h/mL
- Activity (Streptococcus pneumoniae [12]): Active
- Activity (Mus musculus [13]): Non-Toxic
- Activity (Mus musculus [14]): Toxic
- Activity (Mus musculus [15]): Non-Toxic
- Activity (Mus musculus [16]): Non-Toxic
- Activity (Mus musculus [17]): Non-Toxic
- Activity (Mus musculus [18]): Toxic
- Activity (Mus musculus [19]): Non-Toxic
- Activity (Mus musculus [20]): Non-Toxic
- Activity (Mus musculus [21]): Non-Toxic

SMILES: COc1c(N2C[C@@H]3CCCN[C@@H]3C2)c(F)cc2c(=O)c(C(=O)O)cn(C3CC3)c12
- Activity (Streptococcus pneumoniae [22]): Active

SMILES: COc1c(N2C[C@H]3CCOC[C@@]3(N)C2)c(F)cc2c(=O)c(C(=O)O)cn([C@@H]3C[C@@H]3F)c12
- MIC (Staphylococcus aureus [3]): 0.012 µg/mL (≈ 0.0276 µM)
- MIC (Streptococcus pneumoniae [23]): 0.2 µg/mL (≈ 0.459 µM)
- MIC (Streptococcus pneumoniae [4]): 0.2 µg/mL (≈ 0.459 µM)
- MIC (Streptococcus pyogenes): 0.2 µg/mL (≈ 0.459 µM)
- MIC (Enterococcus faecalis): 0.39 µg/mL (≈ 0.896 µM)
- MIC (Bacillus spizizenii): 0.025 µg/mL (≈ 0.0574 µM)
- MIC (Escherichia coli [24]): 0.05 µg/mL (≈ 0.115 µM)
- MIC (Klebsiella pneumoniae): 0.2 µg/mL (≈ 0.459 µM)
- MIC (Haemophilus influenzae): 0.012 µg/mL (≈ 0.0276 µM)
- MIC (Moraxella catarrhalis): 0.1 µg/mL (≈ 0.23 µM)
- MIC (Pseudomonas aeruginosa): 3.13 µg/mL (≈ 7.19 µM)
- MIC (Staphylococcus aureus [5]): 0.78 µg/mL (≈ 1.79 µM)
- MIC (Staphylococcus aureus [6]): 0.78 µg/mL (≈ 1.79 µM)
- MIC (Escherichia coli [8]): > 6.25 µg/mL
- MIC (Escherichia coli [9]): 0.39 µg/mL (≈ 0.896 µM)
- inhibition at 30 µM (hERG (KCNH2) [25]): -6.4%
- inhibition at 100 µM (hERG (KCNH2) [26]): -7.5%
- remaining at 0.5 h, 1 µM [11]: 100%
- fraction unbound at 1 h (Albumin): 0.88

SMILES: COc1c(N2C[C@@H]3CCOC[C@@]3(N)C2)c(F)cc2c(=O)c(C(=O)O)cn([C@@H]3C[C@@H]3F)c12.CS(=O)(=O)O
- Cmax [27]: 3700 ng/mL
- AUC(0-t) at 24 h [1]: 19800 ng·h/mL
- half-life [28]: 4.6 h
- dose excreted at 24 h [29]: 64.1%
- bioavailability [30]: 75%

SMILES: O=C(O)c1cn(C2CC2)c2cc(N3CCNCC3)c(F)cc2c1=O [CIPROFLOXACIN]
- Activity (Mus musculus [13]): Non-Toxic
- Activity (Mus musculus [15]): Toxic
- Activity (Mus musculus [31]): Toxic
- Activity (Mus musculus [32]): Toxic
- Activity (Mus musculus [16]): Non-Toxic
- Activity (Mus musculus [19]): Toxic
- Activity (Mus musculus [20]): Toxic
- Activity (Mus musculus [21]): Toxic
